Measured values from patent US9072751B2, “Na/K-ATPase ligand” (priority 2006, dated 2015).

What was measured:
[1] = system: isolated cardiac fibroblasts; test: Radiolabeled proline incorporation into collagen (collagen synthesis) in cardiac fibroblasts; format: cell-based, rat; settings: for Effect on MBG-stimulated proline incorporation into collagen: MBG 10 nM, PP2 1 μmol/L, N-acetyl cysteine 2.5 mmol/L added 2 hours before
Experimental: (§1) Preparation of adult rat cardiac fibroblasts was performed as described previously by Brilla et al. with modifications.
Collagen synthesis rates were determined by the method of Nishida et al. with modification.
(§2) To further examine the molecular basis of this cardiac fibrosis, isolated cardiac fibroblasts were subjected to increase doses of MBG (10^−10, 10^−9, and 10^−8 M). […] Using collagenase digestion, we observed that the vast majority of the proline incorporation was into collagen. Using standardized RT-PCR, we observed a doubling of mRNA for collagen-1 at 24 hours in response to 10 nM of MBG.
(§3) Representative Western blot for procollagen and quantitative densitometric data obtained in response to different doses of (a) MBG (all N=10), (b) MBG 10 nM contrasted with different doses of ouabain (0.1 to 100 nM) and digoxin (10 nM; all N=8). c, ouabain sensitive Rb uptake as a function of MBG and ouabain concentration (N=4 at each concentration for both MBG and ouabain; data expressed as fraction of control). d, relative proline incorporation in the supernatant and matrix, both will and without collagenase digestion (total). Each group (controls and different doses of MBG) contains N=7 replicants. The difference between the total and after collagenase digestion is reported as collagen. The matrix is the sample that was obtained after removing supernatant and scraping the culture dish. e, mRNA for collagen 1 in MBG-treated (10 nM; N=8) or control (N=8) fibroblasts. f, procollagen stability after cycloheximide treatment. Time 0 is 1 hour after incubation with cycloheximide (20 μg/mL). […] Least-square regression line fit to control (CTL) and MBG data. Bars on quantitative graphs represent the mean.+−.SEM. *P<0.05 and **P<0.01 vs control.
(§4) The effects of PP2 (1 μmol/L), herbimycin (1 μmol/L), AG1478 (250 nM), and N-acetyl cysteine (2.5 mmol/L) on MBG (10 nM) stimulation of procollagen expression also were found. The PP2, herbimycin AG1478, and N-acetyl cysteine were administered from 2 hours before the addition of MBG and continued throughout the 24 hours of MBG incubation (total of 26 hours). Each bar represents the mean.+−.SEM of n=8 experiments. b, effects of PP2 (1 μmol/L) and N-acetyle cysteine (2.5 mmol/L) on MBG (10 nM)-stimulated proline incorporation into collagen. Again, the PP2 an N-acetyl cysteine were added 2 hours before exposure to MBG. Each bar represents the mean.+−.SEM of N=5 experiments. c, effects of MBG 10 nM on procollagen content in SYF and SYF+ cells. Representative Western blots are shown above quantitative data. SYF blots loaded with 15 μg of protein and SYF+blots loaded with 10 μg of protein. Each bar represents the mean.+−SEM of N-6 determinations In each group. **P<01.10 vs. control.
(§5) The effect of 24 hours of MBG (1 and 10 nM) on TGF-β, Smad 2/3, Smad 4, and pSmad 2/3 expression determined by Western blot. b and c, effects of 24 hours of MBG (10 nM), TGFβ(5 ng/mL), and the TGF-β receptor antagonist SB431542 ([…] on procollagen-1 expression (Western blot) and radiolabeled proline incorporation, respectively also were carried out. SB431542 was added 2 hours before exposure to either TGFβ or MBG (total of 26-hour exposure). Each bar represents the mean.+−.SEM of 6 to 8 determinations. *P<0.05, **P<0.01 vs. control.

[2] = system: isolated cardiac fibroblasts; format: cell-based, rat; settings: for Effect on MBG stimulation of collagen synthesis (procollagen expression): MBG 10 nM 24 h, PP2 1 μmol/L, herbimycin 1 μmol/L, AG1478 250 nM, N-acetyl cysteine 2.5 mmol/L from 2 hours before
Experimental: as §1
Western blot analysis was performed on protein isolated from tissue homogenates, cell culture whole cell lysates, or nuclear extracts as described previously.
as §3
as §4, with “The” for “The effects of PP2 (1 μmol/L), herbimycin (1 μmol/L), AG1478 (250 nM), and N-acetyl cysteine (2.5 mmol/L) on MBG (10 nM) stimulation of procollagen expression also were found. The”
as §5

fibroblast cell line = test: Procollagen expression in immortalized fibroblast cell line (Western blot); format: cell-based
Source text: We next examined whether skin fibroblasts lines had similar response. This was done with dermal fibroblasts kindly provided by Dr. Bashar Kahaleh. […] The magnitude of this response is illustrated by comparison to maximal doses of TGFβ, the “classic” stimulus for fibrosis (see below). In addition, we observed that an immortalized fibroblast line responded similarly to MBG, ouabain and digoxin.
Response of dermal fibroblasts to MBG as compared with TGF beta. Note that increase in collagen expression in MBG is approximately 10 fold with 5 or 10 nM MBG.

[3] = cited from earlier work
SYF cells = test: Procollagen expression in SYF cells; format: cell-based; settings: MBG 10 nM
Source text: (§6) To examine whether cardiotronic steroids induced collagen synthesis by signaling through the Na/K-ATPase, we performed the following studies. First, we used pharmacological antagonism at several steps in the Na/K-ATPase cascade. Specifically, we used pharmacological antagonism of Src activation with PP2, nonspecific tyrosine kinase inhibition with herbimycin, inhibition of EGFR transactivation with AG1478, and nonspecific antioxidant administration with N-acetyle cysteine. […] Next we performed studies in the SYF and SYF+ cells (details available in the online supplement).
as §4, with “SYF blots loaded with 15 μg of protein and SYF+blots loaded with 10 μg of protein. Each bar represents the mean.+−SEM of N-6 determinations In each group. **P<01.10 vs. control.” left out

SYF+ cells = test: Procollagen expression in SYF+ cells; format: cell-based; settings: MBG 10 nM
Source text: as §6
as §4, with “SYF blots loaded with 15 μg of protein and SYF+blots loaded with 10 μg of protein. Each bar represents the mean.+−SEM of N-6 determinations In each group. **P<01.10 vs. control.” left out

Na/K-ATPase = target: T1, Na/K-ATPase (Rattus norvegicus, UniProt P06685); test: Ouabain sensitive 86Rb uptake in cardiac fibroblasts; format: cell-based
T1 construct: In vitro studies were then pursued with cultured isolated cardiac fibroblasts; endogenous in cells; host or cells: primary isolated cardiac fibroblasts in culture
Experimental: as §2
Representative Western blot for procollagen and quantitative densitometric data obtained in response to different doses of (a) MBG (all N=10), (b) MBG 10 nM contrasted with different doses of ouabain (0.1 to 100 nM) and digoxin (10 nM; all N=8). c, ouabain sensitive Rb uptake as a function of MBG and ouabain concentration (N=4 at each concentration for both MBG and ouabain; data expressed as fraction of control). d, relative proline incorporation in the supernatant and matrix, both will and without collagenase digestion (total). Each group (controls and different doses of MBG) contains N=7 replicants. The difference between the total and after collagenase digestion is reported as collagen. […] Bars on quantitative graphs represent the mean.+−.SEM. *P<0.05 and **P<0.01 vs control.

fibroblasts = settings: 48 hours, 15 ng/mL; cited from earlier work
Milan hypertensive rats = settings: cited from earlier work

Compound: CC(C)(C)n1nc(-c2ccc(Cl)cc2)c2c(N)ncnc21 [PP2]
- Effect on MBG-stimulated proline incorporation into collagen [1]: prevented increases in proline incorporation into collagen
- Effect on MBG stimulation of collagen synthesis (procollagen expression) [2]: prevented MBG stimulation of collagen synthesis

Compound: C[C@H]1O[C@@H](O[C@H]2[C@@H](O)C[C@H](O[C@H]3[C@@H](O)C[C@H](O[C@H]4CC[C@@]5(C)[C@H](CC[C@@H]6[C@@H]5C[C@@H](O)[C@]5(C)[C@@H](C7=CC(=O)OC7)CC[C@]65O)C4)O[C@@H]3C)O[C@@H]2C)C[C@H](O)[C@@H]1O [digoxin]
- Effect on fibroblast cell line expression of procollagen (fibroblast cell line): Comparable effect
- Free fraction of plasma digoxin ([3]; human, in vivo): 70% to 80%
- Total digoxin levels typically maintained in patients ([3]; patients treated with digoxin): < 2 ng/mL

Compound: CC(=O)N[C@@H](CS)C(=O)O [N-acetyl cysteine]
- Effect on MBG-stimulated proline incorporation into collagen [1]: prevented increases in proline incorporation into collagen
- Effect on MBG stimulation of collagen synthesis (procollagen expression) [2]: prevented MBG stimulation of collagen synthesis

Compound: CO[C@H]1[C@@H](OC)C[C@H](C)[C@@H](OC)C2=CC(=O)C=C(NC(=O)/C(C)=C/C=C\[C@H](OC)[C@@H](OC(N)=O)/C(C)=C/[C@@H]1C)C2=O [herbimycin]
- Effect on MBG stimulation of collagen synthesis (procollagen expression) [2]: prevented MBG stimulation of collagen synthesis

Compound: C[C@@H]1O[C@@H](O[C@H]2C[C@@H](O)[C@]3(CO)[C@H]4[C@H](O)C[C@]5(C)[C@@H](C6=CC(=O)OC6)CC[C@]5(O)[C@@H]4CC[C@]3(O)C2)[C@H](O)[C@H](O)[C@H]1O [ouabain, reference compound]
- Effect on fibroblast cell line expression of procollagen (fibroblast cell line): Comparable effect
- Response of procollagen expression in SYF cells (SYF cells): essentially no response
- Upregulation of procollagen expression in SYF+ cells (SYF+ cells): very similar way as the primary cardiac fibroblast cultures
- Threshold for inducing collagen expression relative to doses with detectable effects on 86Rb uptake (Na/K-ATPase): log units below

Compound: TGF-β
- Maximal increase in collagen production (fibroblasts): 2 times
- Synergism with MBG on procollagen expression ([2]; TGF-β 5 ng/mL and MBG 10 nM): did not note any synergism

Compound: COc1cc2ncnc(Nc3cccc(Cl)c3)c2cc1OC [AG1478]
- Effect on MBG stimulation of collagen synthesis (procollagen expression) [2]: prevented MBG stimulation of collagen synthesis

Compound: NC(=O)c1ccc(-c2nc(-c3ccc4c(c3)OCO4)c(-c3ccccn3)[nH]2)cc1 [SB431542]
- Radiolabeled proline incorporation relative to control cells ([1]; 100-μmol/L): did decrease radiolabeled proline incorporation below that seen with control cells
- Effect on TGF-β and MBG (10 nM) stimulation of radiolabeled proline incorporation ([1]; SB431542 added 2 hours before): completely blocked
- Procollagen expression relative to baseline (Western blot) ([2]; 100-μmol/L): did not educe procollagen expression below baseline
- Effect on TGF-β and MBG (10 nM) stimulation of collagen expression ([2]; SB431542 added 2 hours before): completely blocked

Compound: C[C@]12CC[C@H](O)C[C@H]1CC[C@@H]1[C@@H]2CC[C@]2(C)[C@@](O)(c3ccoc3)CC[C@]12O [PST 2238]
- Effect on hypertension and cardiac hypertrophy (Milan hypertensive rats): ameliorates hypertension, as well as cardiac hypertrophy
